Values joined by “and” are separate entries in the source; they are usually repeats but may differ in a detail not shown here. Identical values can stand only once. Toxic doses and inconclusive results are not listed. Cut-off read from the data, not from the text of the source: active = T/C of 150% or more; inactive = T/C below 125%.
Tested on: L1210 leukemia ip in BDF1 mice, survival T/C
Test: NCI In Vivo Anticancer Drug Screen. Data for tumor model L1210 Leukemia (intraperitoneal) in B6D2F1 (BDF1) mice
Details: endpoint: mean survival time, higher = longer survival
How it was run: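 Antitumor effect is assessed in tumor-bearing animals. Survival in the compound arm is compared with a vehicle-dosed control arm and expressed as their quotient.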

[1] = dose: 100.0 mg/kg/injection, schedule: Q04DX002 (ip), vehicle: Klucel (hydroxypropylcellulose) (HPC)
[2] = dose: 200.0 mg/kg/injection, schedule: Q04DX002 (ip), vehicle: Klucel (hydroxypropylcellulose) (HPC)
[3] = dose: 100.0 mg/kg/injection, schedule: Q01DX001 (ip), vehicle: Klucel (hydroxypropylcellulose) (HPC)
[4] = dose: 200.0 mg/kg/injection, schedule: Q01DX001 (ip), vehicle: Klucel (hydroxypropylcellulose) (HPC)
[5] = dose: 400.0 mg/kg/injection, schedule: Q01DX001 (ip), vehicle: Klucel (hydroxypropylcellulose) (HPC)
[6] = dose: 50.0 mg/kg/injection, schedule: Q01DX009 (ip), vehicle: saline
[7] = dose: 100.0 mg/kg/injection, schedule: Q01DX009 (ip), vehicle: saline
[8] = dose: 100.0 mg/kg/injection, schedule: Q04DX003 (ip), vehicle: saline
[9] = dose: 200.0 mg/kg/injection, schedule: Q01DX009 (ip), vehicle: saline
[10] = dose: 200.0 mg/kg/injection, schedule: Q04DX003 (ip), vehicle: saline
[11] = dose: 400.0 mg/kg/injection, schedule: Q04DX003 (ip), vehicle: saline
[12] = dose: 100.0 mg/kg/injection, schedule: Q01DX001 (ip), vehicle: saline
[13] = dose: 200.0 mg/kg/injection, schedule: Q01DX001 (ip), vehicle: saline
[14] = dose: 400.0 mg/kg/injection, schedule: Q01DX001 (ip), vehicle: saline
[15] = dose: 25.0 mg/kg/injection, schedule: Q01DX009 (ip), vehicle: saline
[16] = dose: 100.0 mg/kg/injection, schedule: Q01DX009 (ip), vehicle: Klucel (hydroxypropylcellulose) (HPC)
[17] = dose: 200.0 mg/kg/injection, schedule: Q01DX009 (ip), vehicle: Klucel (hydroxypropylcellulose) (HPC)
[18] = dose: 400.0 mg/kg/injection, schedule: Q01DX009 (ip), vehicle: Klucel (hydroxypropylcellulose) (HPC)

Measured: T/C

NC(=S)N/N=C/c1c(Cl)n(C(=O)c2ccccc2Cl)c2ccccc12
inactive: dose: 50.0 mg/kg/injection, schedule: Q04DX002 (ip), vehicle: Klucel (hydroxypropylcellulose) (HPC) 87 % of control | [1] 87 % of control | [2] 91 % of control

CCCCC(CCCCCC(CCCC)C1NC(C)Cc2cc(OC)c(OC)cc21)C1NC(C)Cc2cc(OC)c(OC)cc21 (stereo not given)
inactive: dose: 25.0 mg/kg/injection, schedule: Q01DX001 (ip), vehicle: Klucel (hydroxypropylcellulose) (HPC) 98 % of control | dose: 50.0 mg/kg/injection, schedule: Q01DX001 (ip), vehicle: Klucel (hydroxypropylcellulose) (HPC) 105 % of control | [3] 90 % of control and 91 % of control

COc1ccc(/C=C(\C#N)c2ccc([N+](=O)[O-])cc2)cc1[N+](=O)[O-]
inactive: [1] 105 % of control | [2] 105 % of control | dose: 400.0 mg/kg/injection, schedule: Q04DX002 (ip), vehicle: Klucel (hydroxypropylcellulose) (HPC) 102 % of control

CC(=O)c1ccc(OCC(=O)O)cc1
inactive: [3] 97 % of control | [4] 97 % of control | [5] 101 % of control

CC(=O)Nc1ccc2c(O)cc(S(=O)(=O)O)cc2c1
inactive: [6] 95 % of control | [7] 99 % of control | [8] 101 % of control | [9] 100 % of control | [10] 104 % of control | [11] 98 % of control

CCOC(=O)C1=NN(c2ccccc2)C(=O)C1N=Nc1ccc(S(=O)(=O)Nc2ncccn2)cc1 (stereo not given)
inactive: [12] 98 % of control | [13] 96 % of control | [14] 101 % of control

C/C(=C\c1ccc(O)cc1)[N+](=O)[O-]
inactive: dose: 50.0 mg/kg/injection, schedule: Q01DX009 (ip), vehicle: alcohol 104 % of control | dose: 100.0 mg/kg/injection, schedule: Q01DX009 (ip), vehicle: alcohol 105 % of control | dose: 100.0 mg/kg/injection, schedule: Q04DX003 (ip), vehicle: acetone 96 % of control | dose: 200.0 mg/kg/injection, schedule: Q01DX009 (ip), vehicle: alcohol 91 % of control | dose: 200.0 mg/kg/injection, schedule: Q04DX003 (ip), vehicle: acetone 105 % of control

CCCC(=O)NN=C(C)C
inactive: dose: 12.5 mg/kg/injection, schedule: Q01DX009 (ip), vehicle: saline 109 % of control | [15] 109 % of control | [6] 95 % of control

CCCCCCC(O)CCc1ccccc1 (stereo not given)
inactive: [16] 103 % of control | [17] 102 % of control | [18] 113 % of control

NNc1nncn1N
inactive: [6] 101 % of control | [7] 102 % of control | [8] 97 % of control | [9] 103 % of control | [10] 94 % of control

CCOc1ccccc1/C=N\N=C(N/N=C/c1ccccc1OCC)N/N=C/c1ccccc1OCC
inactive: dose: 60.0 mg/kg/injection, schedule: Q01DX Z (oral), vehicle: saline 91 % of control | dose: 120.0 mg/kg/injection, schedule: Q01DX Z (oral), vehicle: saline 100 % of control | dose: 240.0 mg/kg/injection, schedule: Q01DX Z (oral), vehicle: saline 95 % of control | dose: 480.0 mg/kg/injection, schedule: Q01DX Z (oral), vehicle: saline 95 % of control

CCCCCCCCCCCCCCOC(=O)Cl
inactive: [16] 101 % of control | [17] 97 % of control | [18] 86 % of control

CCN(CC)CC(=O)NCC(CCN1CCCC1)(c1cccc2ccccc12)C(C)C (stereo not given)
inactive: [15] 101 % of control | [6] 98 % of control | [7] 101 % of control

Cc1cc(=O)[nH]c(=S)[nH]1
inactive: [3] 90 % of control | [4] 101 % of control | [5] 92 % of control

CCOC(=O)CC(=O)C(F)(F)F.CCOC(=O)CC(=O)C(F)(F)F.[Ni]
inactive: dose: 5.0 mg/kg/injection, schedule: Q01DX001 (ip), vehicle: saline 96 % of control | dose: 10.0 mg/kg/injection, schedule: Q01DX001 (ip), vehicle: saline 98 % of control | dose: 20.0 mg/kg/injection, schedule: Q01DX001 (ip), vehicle: saline 102 % of control | dose: 40.0 mg/kg/injection, schedule: Q01DX001 (ip), vehicle: saline 106 % of control

O=C(c1ccccc1)C(Cl)Cl
inactive: [8] 106 % of control | [10] 96 % of control | [11] 98 % of control

CC(=O)Nc1cc2c(cc1Br)-c1ccccc1C2O (stereo not given)
inactive: dose: 100.0 mg/kg/injection, schedule: Q01DX001 (ip), vehicle: carboxymethylcellulose (CMC) 98 % of control | dose: 110.0 mg/kg/injection, schedule: Q01DX Z (ip), vehicle: other 98 % of control | dose: 166.0 mg/kg/injection, schedule: Q01DX Z (ip), vehicle: other 101 % of control | dose: 200.0 mg/kg/injection, schedule: Q01DX001 (ip), vehicle: carboxymethylcellulose (CMC) 97 % of control | dose: 250.0 mg/kg/injection, schedule: Q01DX Z (ip), vehicle: other 98 % of control | dose: 296.0 mg/kg/injection, schedule: Q01DX Z (ip), vehicle: saline 103 % of control | dose: 444.0 mg/kg/injection, schedule: Q01DX Z (ip), vehicle: saline 105 % of control | dose: 560.0 mg/kg/injection, schedule: Q01DX Z (ip), vehicle: other 103 % of control | dose: 666.0 mg/kg/injection, schedule: Q01DX Z (ip), vehicle: saline 106 % of control

COc1ccccc1-n1c(=O)c(N=Nc2ccc(Cl)cc2)c(O)n(-c2ccccc2C)c1=S
inactive: dose: 75.0 mg/kg/injection, schedule: Q04DX003 (ip), vehicle: Klucel (hydroxypropylcellulose) (HPC) 94 % of control | dose: 150.0 mg/kg/injection, schedule: Q04DX003 (ip), vehicle: Klucel (hydroxypropylcellulose) (HPC) 107 % of control | dose: 300.0 mg/kg/injection, schedule: Q04DX003 (ip), vehicle: Klucel (hydroxypropylcellulose) (HPC) 104 % of control

OCCC1(CCO)CCCCC1
inactive: dose: 25.0 mg/kg/injection, schedule: Q01DX009 (ip), vehicle: saline with Tween-80 99 % of control | dose: 25.0 mg/kg/injection, schedule: Q04DX003 (ip), vehicle: saline with Tween-80 114 % of control | dose: 50.0 mg/kg/injection, schedule: Q01DX009 (ip), vehicle: saline with Tween-80 95 % of control | dose: 50.0 mg/kg/injection, schedule: Q04DX003 (ip), vehicle: saline with Tween-80 104 % of control | dose: 100.0 mg/kg/injection, schedule: Q01DX009 (ip), vehicle: saline with Tween-80 95 % of control and 108 % of control

[BH3-][NH2+]c1cccc([NH2+][BH3-])c1
inactive: [12] 100 % of control | [13] 96 % of control | [14] 94 % of control

O=[N+]([O-])c1ccc2c(N=Nc3ccc4ccccc4c3O)c(O)cc(S(=O)(=O)O)c2c1
inactive: dose: 50.0 mg/kg/injection, schedule: Q04DX003 (ip), vehicle: carboxymethylcellulose (CMC) 94 % of control | dose: 100.0 mg/kg/injection, schedule: Q04DX003 (ip), vehicle: carboxymethylcellulose (CMC) 93 % of control | dose: 200.0 mg/kg/injection, schedule: Q04DX003 (ip), vehicle: carboxymethylcellulose (CMC) 102 % of control

Source: PubChem BioAssay AID248 (DTP/NCI, 2004)
